Measured values from ChEMBL document CHEMBL5505957 (Eur J Med Chem, 2024).
≈ marks a conversion by molar mass, not a printed value.

Legend:
[1] = Inhibition of Influenza A virus H1N1 neuraminidase
[2] = system: Human immunodeficiency virus 1; assay: microbe, parasite or virus in culture; settings: Human immunodeficiency virus 1, C8166
[3] = system: Human immunodeficiency virus 1; assay: microbe, parasite or virus in culture; settings: Human immunodeficiency virus 1, C8166; remark: listed apart in the source
Rattus norvegicus = assay: Anti-inflammatory activity against carrageenan-induced paw edema in Sprague-Dawley rat assessed as inhibition of paw edema
Protein O-GlcNAcase = biological target: T1, Protein O-GlcNAcase (Homo sapiens, UniProt O60502)
T1 sequence (O60502 whole entry): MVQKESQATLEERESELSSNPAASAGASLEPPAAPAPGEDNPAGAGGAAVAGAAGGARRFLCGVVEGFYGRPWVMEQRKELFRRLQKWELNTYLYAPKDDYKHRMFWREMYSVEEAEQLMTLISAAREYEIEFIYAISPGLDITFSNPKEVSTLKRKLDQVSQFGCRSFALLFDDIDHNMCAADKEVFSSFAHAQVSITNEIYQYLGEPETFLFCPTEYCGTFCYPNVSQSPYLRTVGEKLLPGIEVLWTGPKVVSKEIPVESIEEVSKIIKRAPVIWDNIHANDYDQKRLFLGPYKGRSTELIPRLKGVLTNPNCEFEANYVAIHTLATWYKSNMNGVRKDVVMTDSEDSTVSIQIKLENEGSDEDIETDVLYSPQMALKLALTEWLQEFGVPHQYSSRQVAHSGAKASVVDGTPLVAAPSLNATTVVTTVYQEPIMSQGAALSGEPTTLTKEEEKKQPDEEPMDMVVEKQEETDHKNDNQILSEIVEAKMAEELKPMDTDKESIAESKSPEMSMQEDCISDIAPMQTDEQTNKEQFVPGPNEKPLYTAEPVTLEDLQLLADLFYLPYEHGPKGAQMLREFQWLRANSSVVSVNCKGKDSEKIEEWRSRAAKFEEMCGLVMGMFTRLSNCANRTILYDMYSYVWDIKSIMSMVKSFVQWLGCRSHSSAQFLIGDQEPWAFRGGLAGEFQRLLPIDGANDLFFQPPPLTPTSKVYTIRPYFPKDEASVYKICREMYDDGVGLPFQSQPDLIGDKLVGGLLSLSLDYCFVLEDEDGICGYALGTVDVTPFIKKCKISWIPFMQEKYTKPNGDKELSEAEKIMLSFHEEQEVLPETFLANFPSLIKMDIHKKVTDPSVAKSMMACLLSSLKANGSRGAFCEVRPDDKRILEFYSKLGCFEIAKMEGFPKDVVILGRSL

[4] = biological target: T2, M-phase inducer phosphatase 3 (Homo sapiens, UniProt P30307); assay: Inhibition of full-length recombinant human CDC25C incubated for 5 to 8 mins by fluorescence based assay
T2 sequence (P30307 whole entry): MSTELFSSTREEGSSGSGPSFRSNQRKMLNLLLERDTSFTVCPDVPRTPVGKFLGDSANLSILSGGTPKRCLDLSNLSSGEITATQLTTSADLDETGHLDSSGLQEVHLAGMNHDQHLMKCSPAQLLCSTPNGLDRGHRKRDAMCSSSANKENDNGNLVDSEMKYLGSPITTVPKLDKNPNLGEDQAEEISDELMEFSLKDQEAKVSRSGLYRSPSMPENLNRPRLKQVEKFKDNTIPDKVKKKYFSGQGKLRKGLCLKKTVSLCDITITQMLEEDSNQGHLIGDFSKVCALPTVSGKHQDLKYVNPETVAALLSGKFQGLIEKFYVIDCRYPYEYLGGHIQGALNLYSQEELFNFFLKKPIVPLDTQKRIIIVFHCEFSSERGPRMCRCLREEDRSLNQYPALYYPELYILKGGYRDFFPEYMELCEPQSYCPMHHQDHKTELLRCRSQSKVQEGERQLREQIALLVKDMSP

Cholinesterase = Cholinesterase (Equus caballus, UniProt P81908); assay: Inhibition of equine serum BuChE using butyrylthiocholine chloride as substrate by Ellman's method
[5] = Inhibition of Serratia marcescens Chitinase B
[6] = biological target: T3, Human immunodeficiency virus type 1 protease (Human immunodeficiency virus 1, UniProt Q72874); assay: Binding affinity to HIV-1 protease assessed as inhibition constant
[7] = biological target: T3, Human immunodeficiency virus type 1 protease
[8] = Cytotoxicity against MDCK cells assessed as reduction in cell viability incubated for 48 hrs by MTT assay; settings: dog
[9] = system: Human immunodeficiency virus 1; assay: Antiviral activity against HIV-1 infected in human MT4 cells assessed as inhibition of virus-induced cytopathic effect measured after 5 days by spectrophotometric MTT assay; settings: Human immunodeficiency virus 1, MT4, 120 h
[10] = Inhibition of Serratia marcescens Chitinase A
[11] = biological target: Replicase polyprotein 1ab (Severe acute respiratory syndrome coronavirus 2, UniProt P0DTD1)
[12] = Cytotoxicity against African green monkey Vero E6 cells assessed as reduction in cell viability measured after 72 hrs by MTS assay
Aspergillus fumigatus [13] = assay: Antimicrobial activity against Aspergillus fumigatus assessed as fungal growth inhibition
Aspergillus fumigatus [14] = assay: Antifungal activity against Aspergillus fumigatus by CLSI based broth microdilution method
[15] = system: Human immunodeficiency virus 1; assay: Anti-HIV activity against wild type HIV-1 IIIB infected in human MT4 cells assessed as inhibition of virus-induced cytopathic effect incubated for 5 days by MTT assay; settings: Human immunodeficiency virus 1, IIIB, MT4, 120 h

Cholinesterase, sequence (P81908 whole entry): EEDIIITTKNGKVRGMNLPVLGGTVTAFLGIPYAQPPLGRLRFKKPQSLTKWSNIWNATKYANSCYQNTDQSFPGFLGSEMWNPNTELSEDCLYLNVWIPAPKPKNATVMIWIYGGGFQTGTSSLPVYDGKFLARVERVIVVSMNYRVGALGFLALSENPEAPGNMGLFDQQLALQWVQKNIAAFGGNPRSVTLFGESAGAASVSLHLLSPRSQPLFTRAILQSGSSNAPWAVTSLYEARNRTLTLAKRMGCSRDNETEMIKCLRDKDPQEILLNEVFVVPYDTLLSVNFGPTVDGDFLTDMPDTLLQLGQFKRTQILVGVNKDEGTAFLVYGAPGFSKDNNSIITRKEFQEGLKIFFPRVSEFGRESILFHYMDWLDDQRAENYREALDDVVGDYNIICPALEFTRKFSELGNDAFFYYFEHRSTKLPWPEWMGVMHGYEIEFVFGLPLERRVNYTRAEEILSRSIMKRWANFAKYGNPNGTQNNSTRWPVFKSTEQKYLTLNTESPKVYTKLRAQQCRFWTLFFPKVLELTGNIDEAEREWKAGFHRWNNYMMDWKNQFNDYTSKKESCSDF

COC(=O)[C@@H](C)NP(=O)(OCC1OC(n2cc(CN3CCC(=O)NC3=O)nn2)C(O)C1O)Oc1ccccc1 (some centres not stated)
IC50 [1]: 25000 nM

COc1ccc(S(=O)(=O)N(CC(C)C)C[C@@H](O)[C@H](Cc2ccccc2)n2cc(CNC(=O)c3ccc(CNC(=O)OC(C)(C)C)cc3)nn2)cc1
IC50 [2]: 17 nM | IC50 [3]: 52 nM

Cc1cc(-n2cc(-c3ccc(F)cc3)nn2)n(-c2ccc(S(C)(=O)=O)cc2)n1
ED50 (Rattus norvegicus): 0.44 mg/kg

CO[C@@H]1O[C@H](CO)[C@@H](O)[C@H](O)[C@H]1n1cc(CNc2ccccc2)nn1
IC50 (Protein O-GlcNAcase): 520 nM

CO[C@@H]1O[C@H](CO)[C@@H](O)[C@H](O)[C@H]1n1cc(COc2ccccc2)nn1
IC50 (Protein O-GlcNAcase): 720 nM

CC(NC1=C(Cl)C(=O)c2cccnc2C1=O)c1cn(Cc2ccc(CO)cc2)nn1 (configuration not stated)
IC50 [4]: 60 nM

O=C(CCCCC1CCSS1)NCc1cn(CCCCOc2ccc3c(c2)OCCC3=O)nn1 (configuration not stated)
IC50 (Cholinesterase): 7550 nM

CO[C@@H]1O[C@H](CO)[C@@H](O)[C@H](O)[C@H]1n1cc(CCc2ccccc2)nn1
IC50 (Protein O-GlcNAcase): 500 nM

CNC(=O)NC(=N)NCCC[C@@H](NC(=O)Cn1nncc1CO/N=C/c1ccnc2ccccc12)C(=O)N(Cc1ccccc1)Cc1ccccc1
IC50 [5]: 22 nM

COc1ccc(S(=O)(=O)N(CC(C)C)C[C@@H](O)C(Cc2ccccc2)n2cc(COC(=O)NC3c4ccccc4C[C@H]3O)nn2)cc1 (single isomer, unassigned)
Ki [6]: 1.7 nM | IC50 [7]: 6 nM

CC(=O)O[C@H]1[C@H](OCc2cn(CC3=NCCS3)nn2)OC[C@@H](OC(C)=O)[C@H]1OC(C)=O
IC50 [1]: 1640 nM

COc1ccc(S(=O)(=O)N(CC(C)C)C[C@@H](O)[C@H](Cc2ccccc2)n2cc(CNC(=O)c3ccncc3)nn2)cc1
IC50 [7]: 10 nM

Cc1[nH]c(=O)[nH]c(=O)c1CCCc1cn(C2OC(CO)C(O)C2O)nn1 (configuration not stated)
CC50 at 48 h [8]: 79000 nM

Cc1c(Cc2c(Cl)cccc2Cl)nc(SCc2cn(Cc3ccc(S(N)(=O)=O)cc3)nn2)[nH]c1=O
EC50 [9]: 3220 nM

CNC(=O)NC(=N)NCCC[C@@H]1NC(=O)[C@@H](C)NC(=O)C[C@@H](C(=O)O)NC(=O)C[C@@H](C(=O)O)NC(=O)[C@H](Cc2ccccc2)N(C)C1=O [ARGIFIN]
IC50 [5]: 6400 nM | IC50 [10]: 25 nM

CC1=NN(c2ccc(Cl)cc2)C(=O)/C1=C\c1ccc(OCc2cn(CC(=O)NCc3ccc(C(=O)O)cc3)nn2)cc1
IC50 [11]: 3160 nM | IC50 at 72 h [12]: 22100 nM

CNC(=O)NC(=O)NCCC[C@@H](NC(=O)CN)C(=O)N(Cc1ccccc1)Cc1ccccc1
IC50 [5]: 580 nM

COc1ccc(S(=O)(=O)N(CC(C)C)C[C@@H](O)[C@H](Cc2ccccc2)n2cc(CNC(=O)N[C@H]3c4ccccc4C[C@H]3O)nn2)cc1
IC50 [3]: 46 nM

C=CCc1ccc(OCc2cn([C@H]3O[C@H](COC(C)=O)[C@@H](OC(C)=O)[C@H](OC(C)=O)[C@H]3OC(C)=O)nn2)c(OC)c1
MIC (Aspergillus fumigatus [13]): 10.9 µM (≈ 6.25 µg/mL) | IC50 (Aspergillus fumigatus [14]): 5420 nM

COC(=O)c1ccc(-n2cc(-c3cc(C)c(Oc4ccnc(Nc5ccc(C#N)cc5)n4)c(C)c3)nn2)cc1
IC50 [15]: 13 nM

COC(=O)[C@@H](NC(=O)OCc1cn([C@@H](Cc2ccccc2)[C@H](O)CN(CC(C)C)S(=O)(=O)c2ccc(OC)cc2)nn1)c1ccccc1
IC50 [7]: 10 nM

Cc1cc(-n2cc(-c3ccc(N)cc3)nn2)n(-c2ccc(S(C)(=O)=O)cc2)n1
ED50 (Rattus norvegicus): 0.12 mg/kg
